1 molecule from patent US20170105997A1, “METHODS OF TREATING CANCER” (Northwestern University, priority 2014, published 2017) can be followed below.

For orientation: IC50 means the point on the concentration scale where inhibition reaches its midpoint. Read a low IC50 as higher potency.

Holding throughout (assay type): cell-based
Assay [1] relates to OpM2. The assay can be described thus: gIC50 in multiple myeloma cell line OpM2 treated with EZH2 inhibitors. Particulars: Homo sapiens, OPM-2, t(4;14)+, UTX Het c.197G>A p.G66D. As for the experimental part: (§1) All cells were grown in RPMI 1640 (Invitrogen) supplemented with 10% heat-inactivated FBS and 1% penicillin/streptomycin.
(§2) Cells were treated with the EZH2 inhibitors below. GSK2816126A is also known as GSK126 and is a compound of Formula I, specifically Compound B as described herein. Data in Table I was used to generate the data in FIG. 14. EZH2 inhibitors of Formula II, III, and IV and Compound C are used to generate gIC50 values and similar results as with GSK126 are found. Additional cell lines are tested with EZH2 inhibitors of Formula I, II, III, IV, Compound B, and Compound C and an improved cell killing, e.g. as measured by gIC50, is seen in cell lines having an increased level of MMSET expression, or a decreased level of UTX enzyme, or both, as compared to a control, e.g. a tissue typed control sample not characterized as having cancerous attributes.

Assay [2] concerns KMS-12-BM. The assay can be described thus: gIC50 in multiple myeloma cell line KMS-12-BM treated with EZH2 inhibitors. To be noted: Homo sapiens, MMSET none, UTX Hom del exons 5-12. The method, then: as §1, §2
Assay [3] has as its system RPMI-8226. As to the kind of experiment: gIC50 in multiple myeloma cell line RPMI-8226 treated with EZH2 inhibitors. To be noted: Homo sapiens, MMSET none, UTX wt. The method, then:
as §1, §2

Assay [4] relates to KMS-11. As to the kind of experiment: gIC50 in multiple myeloma cell line KMS-11 treated with EZH2 inhibitors. To be noted: Homo sapiens, t(4;14)+. The method, then: as §1, §2
In assay [5] the test system is LP1. The assay can be described thus: gIC50 in multiple myeloma cell line LP1 treated with EZH2 inhibitors. To be noted: Homo sapiens, LP-1, t(4;14)+, UTX Hom 1621C>T (Q541X). As for the experimental part: as §1, §2

With `CC[C@H](C)n1cc(C)c2c(C(=O)NCc3c(C)cc(C)[nH]c3=O)cc(-c3ccc(N4CCNCC4)nc3)cc21` [GSK2816126A], the IC50 was 861 nM in assay [1]; 2570 nM in assay [2]; 1680 nM in assay [3]; 3020 nM in assay [4]; 2380 nM in assay [5].
